Experimental findings from ChEMBL document CHEMBL5576085, “Heterocyclic compounds as xanthine oxidase inhibitors for the management of hyperuricemia: synthetic strategies, structure-activity relationship and molecular docking studies (2018-2024)” (RSC Med Chem, 2024) are described below.

Test [1] has as its target T1, Xanthine dehydrogenase/oxidase (Homo sapiens, UniProt P47989). The test can be described thus: Inhibition of Xanthine oxidase (unknown origin).
In test [2] the target is T2, Xanthine dehydrogenase/oxidase (Bos taurus, UniProt P80457). The test can be described thus: Inhibition of bovine xanthine oxidase using xanthine as substrate by measuring uric acid formation measured 30 secs interval for 2 mins by spectrophotometric analysis.
The target of test [3] is T1, Xanthine dehydrogenase/oxidase. The test can be described thus: Inhibition of human Xanthine oxidase.
For test [4], the target named is T2, Xanthine dehydrogenase/oxidase. The test can be described thus: Inhibition of bovine serum Xanthine oxidase. The class given is cell-free.
The target of test [5] is T1, Xanthine dehydrogenase/oxidase. The test can be described thus: Inhibition of Xanthine oxidase (unknown origin) using xanthine as substrate preincubated for 30 mins followed by substrate addition by spectrophotometric analysis.
The target of test [6] is T2, Xanthine dehydrogenase/oxidase. The test can be described thus: Inhibition of bovine milk xanthine oxidase using xanthine as substrate preincubated for 30 mins followed by substrate addition by spectrophotometric analysis.

T1 sequence (P47989 whole entry): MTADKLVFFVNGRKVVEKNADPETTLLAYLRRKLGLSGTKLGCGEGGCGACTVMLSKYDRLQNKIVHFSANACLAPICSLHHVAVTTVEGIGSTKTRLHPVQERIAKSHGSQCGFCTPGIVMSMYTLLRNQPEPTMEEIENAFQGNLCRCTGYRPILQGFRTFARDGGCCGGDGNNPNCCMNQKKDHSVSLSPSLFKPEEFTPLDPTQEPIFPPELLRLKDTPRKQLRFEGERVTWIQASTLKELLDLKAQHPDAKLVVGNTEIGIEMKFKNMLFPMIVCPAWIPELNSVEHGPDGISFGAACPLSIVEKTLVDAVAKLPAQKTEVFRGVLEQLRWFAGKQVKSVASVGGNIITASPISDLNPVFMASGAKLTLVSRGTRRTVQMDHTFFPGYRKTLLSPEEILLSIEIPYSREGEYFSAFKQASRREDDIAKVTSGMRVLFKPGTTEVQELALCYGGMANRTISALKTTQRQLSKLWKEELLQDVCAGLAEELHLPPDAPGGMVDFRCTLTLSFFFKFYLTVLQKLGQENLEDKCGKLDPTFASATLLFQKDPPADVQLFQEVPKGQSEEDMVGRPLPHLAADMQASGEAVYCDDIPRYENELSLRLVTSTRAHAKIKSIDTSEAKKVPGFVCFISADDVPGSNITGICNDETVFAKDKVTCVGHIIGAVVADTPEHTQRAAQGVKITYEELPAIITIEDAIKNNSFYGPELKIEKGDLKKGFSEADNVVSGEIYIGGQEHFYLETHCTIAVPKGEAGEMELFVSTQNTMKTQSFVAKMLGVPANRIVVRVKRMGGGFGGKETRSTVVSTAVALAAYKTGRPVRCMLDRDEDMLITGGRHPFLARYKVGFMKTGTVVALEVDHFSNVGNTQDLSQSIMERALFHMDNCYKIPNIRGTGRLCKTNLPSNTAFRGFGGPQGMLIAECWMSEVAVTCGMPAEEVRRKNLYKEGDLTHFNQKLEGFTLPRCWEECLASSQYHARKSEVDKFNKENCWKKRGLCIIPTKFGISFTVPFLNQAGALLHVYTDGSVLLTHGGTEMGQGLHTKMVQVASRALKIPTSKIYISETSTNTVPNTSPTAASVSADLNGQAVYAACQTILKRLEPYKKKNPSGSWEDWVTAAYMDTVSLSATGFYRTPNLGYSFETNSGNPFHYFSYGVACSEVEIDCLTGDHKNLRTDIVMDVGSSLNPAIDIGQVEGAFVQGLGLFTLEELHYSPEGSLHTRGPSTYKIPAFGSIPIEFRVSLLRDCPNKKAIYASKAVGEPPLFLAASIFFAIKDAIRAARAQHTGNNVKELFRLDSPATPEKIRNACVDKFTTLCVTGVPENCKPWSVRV
T2 sequence (P80457 whole entry): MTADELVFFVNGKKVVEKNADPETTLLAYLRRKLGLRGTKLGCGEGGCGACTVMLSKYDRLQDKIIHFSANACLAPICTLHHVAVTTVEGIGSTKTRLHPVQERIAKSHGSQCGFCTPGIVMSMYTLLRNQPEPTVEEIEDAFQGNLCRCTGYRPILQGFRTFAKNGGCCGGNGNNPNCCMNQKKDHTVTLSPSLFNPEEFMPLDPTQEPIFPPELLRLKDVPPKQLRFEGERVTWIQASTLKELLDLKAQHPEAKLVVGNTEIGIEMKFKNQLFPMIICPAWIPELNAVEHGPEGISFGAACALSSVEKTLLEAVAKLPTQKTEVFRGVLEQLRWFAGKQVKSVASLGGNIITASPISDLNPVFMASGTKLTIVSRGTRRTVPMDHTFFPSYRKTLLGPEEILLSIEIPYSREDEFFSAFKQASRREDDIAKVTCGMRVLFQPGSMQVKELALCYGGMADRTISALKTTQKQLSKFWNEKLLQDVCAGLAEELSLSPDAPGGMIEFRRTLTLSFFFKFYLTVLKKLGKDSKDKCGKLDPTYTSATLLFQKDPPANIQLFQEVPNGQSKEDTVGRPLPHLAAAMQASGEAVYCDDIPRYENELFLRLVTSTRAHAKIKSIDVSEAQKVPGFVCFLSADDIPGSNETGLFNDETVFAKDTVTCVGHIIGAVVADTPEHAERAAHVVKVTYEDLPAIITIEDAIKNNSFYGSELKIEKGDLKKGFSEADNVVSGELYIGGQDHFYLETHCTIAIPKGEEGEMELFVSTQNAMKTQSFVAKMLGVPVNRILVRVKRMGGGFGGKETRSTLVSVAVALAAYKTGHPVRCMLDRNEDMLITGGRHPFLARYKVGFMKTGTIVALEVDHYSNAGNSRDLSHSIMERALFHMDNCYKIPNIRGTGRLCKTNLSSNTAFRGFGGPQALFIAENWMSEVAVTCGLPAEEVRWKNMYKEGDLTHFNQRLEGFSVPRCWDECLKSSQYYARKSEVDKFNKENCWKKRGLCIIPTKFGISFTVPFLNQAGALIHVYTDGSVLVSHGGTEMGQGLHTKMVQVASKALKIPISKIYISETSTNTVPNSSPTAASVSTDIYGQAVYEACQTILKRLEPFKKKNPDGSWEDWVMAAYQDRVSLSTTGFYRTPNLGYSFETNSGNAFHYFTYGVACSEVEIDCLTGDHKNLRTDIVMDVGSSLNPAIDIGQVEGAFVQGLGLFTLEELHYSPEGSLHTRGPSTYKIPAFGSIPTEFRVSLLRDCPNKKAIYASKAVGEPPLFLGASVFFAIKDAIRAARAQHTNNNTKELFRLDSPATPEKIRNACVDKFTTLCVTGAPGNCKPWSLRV

`COc1ccc(C(=O)/C=C/c2ccc(O)cc2)c(OC)c1` came in with an IC50 in test [1] of 121 nM.

In turn, `COc1ccc2c(c1)C(=O)C(=O)N2CCn1cc(COc2cc(=O)oc3ccccc23)nn1` had an IC50 in test [2] of 6500 nM.

In turn, `O=c1[nH]c(-c2ccc(OCC3CCCCC3)c(-n3cnnn3)c2)no1` returned an IC50 in test [1] of 121 nM.

In test [1], `COc1cc2ccc(C(=O)NCCCCc3ccc(O)c(O)c3)cc2cc1OC` yielded an IC50 of 13100 nM.

`OCc1nnn(Cc2cccc(Br)c2)c1CO` returned a half-inhibitory concentration (IC50) in test [1] of 710 nM.

Molecule `Oc1ccc(/C=C/c2cc(O)cc3oc(-c4ccc(O)cc4)c(-c4cc(O)cc(O)c4)c23)cc1` registered an IC50 in test [1] of 12300 nM.

For the molecule `Cc1c(/N=C/c2ccc(C(=O)Nc3nc4ccc(S(C)(=O)=O)cc4s3)cc2)c(=O)n(-c2ccccc2)n1C`, 2220 nM corresponded to half-maximal inhibition in test [1] (IC50). This IC50 is about 5.5-fold lower than that of the molecule before.

In test [1], `C=Cc1ccc(C[n+]2cn(Cc3ccc(SC)cc3)c3ccccc32)cc1` showed an IC50 of 590 nM.

`O=[N+]([O-])c1ccc(-c2cnc(-c3ccc(Br)cc3)s2)cc1`: in test [1], the IC50 turned out to be 100 nM.

`COc1ccc([C@@H]2C/C(=N\c3ccc([N+](=O)[O-])cc3Cl)c3c(O)cc(O[C@H]4O[C@@H](O[C@H]5O[C@@H](C)[C@H](O)[C@@H](O)[C@H]5O)[C@H](O)[C@@H](O)[C@@H]4O)cc3O2)cc1O`: inhibition in test [3] was half-maximal at 263 nM (IC50).

In turn, `C[C@@H]1O[C@@H](OC[C@H]2O[C@@H](Oc3c(-c4ccc(O)c(O)c4)oc4cc(O)cc(O)c4/c3=N\Nc3ccccc3)[C@H](O)[C@@H](O)[C@@H]2O)[C@H](O)[C@H](O)[C@H]1O` registered an IC50 in test [1] of 4870 nM.

For the molecule `N#Cc1cc[n+](Cc2ccc(-c3ccc(C[n+]4ccc(C#N)c(C(=O)O)c4)cc3)cc2)cc1C(=O)O`, in test [4], the IC50 worked out at 394 nM.

The molecule `O=C1CCC(Nc2nc3cc(C(=O)Nc4cc(O)c(O)c(O)c4)ccc3n2Cc2ccc(O)cc2)C(=O)N1` (stereo unspecified) came in with an IC50 in test [1] of 18400 nM.

Take `CCn1c(O)c(C(c2ccc(Br)cc2)c2c(O)n(CC)c(=S)n(CC)c2=O)c(=O)n(CC)c1=S`: the IC50 in test [1] was found to be 1790 nM.

In turn, `Nc1ccc(O)c(/N=N/c2ncc(-n3cc4c(=O)ncnc-4[nH]3)[nH]2)c1` yielded an IC50 in test [5] of 600 nM.

As for `O=c1cc(O)cc(/C=C/c2ccc(O)c(O)c2)o1` [HISPIDIN], the IC50 in test [6] amounted to 39700 nM. This counts as double-digit micromolar.

In general, IC50 refers to the midpoint of a concentration-inhibition curve. High values mean a need for much substance, low ones inhibition by little substance.
